Test [1] deals with T1, A3AR (A3 adenosine receptor) (Homo sapiens, UniProt P0DMS8).
T1 construct: gene ADORA3
T1 sequence (P0DMS8 1-318): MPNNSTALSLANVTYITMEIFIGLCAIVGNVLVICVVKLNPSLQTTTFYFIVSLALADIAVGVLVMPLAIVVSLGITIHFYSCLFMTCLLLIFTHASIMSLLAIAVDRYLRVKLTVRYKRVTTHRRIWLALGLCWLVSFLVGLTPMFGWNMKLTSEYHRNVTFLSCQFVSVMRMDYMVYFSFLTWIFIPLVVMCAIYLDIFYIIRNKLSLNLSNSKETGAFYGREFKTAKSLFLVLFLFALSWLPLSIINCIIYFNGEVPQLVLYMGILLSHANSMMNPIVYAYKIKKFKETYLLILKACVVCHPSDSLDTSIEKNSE
In words: competition with fluorescent ligand CA200623 on transfected CHO-K1 cells; confirmed by confocal microscopy. The class given is cell-based.

In test [2] the target is T2, A1AR (A1 adenosine receptor) (Homo sapiens, UniProt P30542).
T2 construct: gene ADORA1
T2 sequence (P30542 1-326): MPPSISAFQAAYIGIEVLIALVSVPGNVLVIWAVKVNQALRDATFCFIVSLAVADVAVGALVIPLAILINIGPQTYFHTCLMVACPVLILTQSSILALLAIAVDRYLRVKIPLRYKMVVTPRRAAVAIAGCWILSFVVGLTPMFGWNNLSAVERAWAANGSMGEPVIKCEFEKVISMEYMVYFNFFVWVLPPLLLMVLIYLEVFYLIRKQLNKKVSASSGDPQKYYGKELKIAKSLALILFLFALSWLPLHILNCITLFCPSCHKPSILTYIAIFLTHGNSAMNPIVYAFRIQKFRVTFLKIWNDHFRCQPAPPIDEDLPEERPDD
The test is described as above. It counts as cell-based.

The structures appear in SMILES notation.

As a reminder, the Ki is a measure of affinity in units of concentration, obtained from inhibition or displacement. For the molecule `COc1cc(/C=C\C(=O)CC(=O)/C=C/c2ccc(O)c(OC)c2)ccc1O` [CTCUR, cis-trans curcumin], the results for the Ki in test [1] and in test [2] were 0.4 µM and 0.306 µM, respectively.

The values above are taken from article PMC10385834, “Curcumin Stereoisomer, Cis-Trans Curcumin, as a Novel Ligand to A1 and A3 Adenosine Receptors” (Pharmaceuticals, 2023).
